According to ChEMBL document CHEMBL1201862, “PubChem BioAssay data set” (2004):
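All cell lines were grown in 96-well plates and treated with compound for 48 hours. Here, GI50 denotes the concentration required for 50% inhibition of growth.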 Calls of active or inactive are those of the source. Cut-off read from the data, not from the text of the source: active = GI50 up to about 1.1 µM and inactive = higher.

Key:
Experiment in all cases: DTP human tumour cell line panel, 48 h
[1] = tested on: EKVX
[2] = tested on: M14
[3] = tested on: Hs-578T
[4] = tested on: HT-29
[5] = tested on: U-251
[6] = tested on: OVCAR-3
[7] = tested on: IGROV-1
[8] = tested on: UACC-257
[9] = tested on: TK-10
[10] = tested on: HL-60
[11] = tested on: UO-31
[12] = tested on: SK-OV-3
[13] = tested on: RPMI-8226
[14] = tested on: HOP-62
[15] = tested on: NCI-H226
[16] = tested on: K562
[17] = tested on: LOX IMVI
[18] = tested on: SK-MEL-2
[19] = tested on: OVCAR-5
[20] = tested on: RXF 393

Measured: GI50

CCOC(=O)Cc1nc2c(N)ncnc2n1C1OC(COC(C)=O)C(OC(C)=O)C1OC(C)=O (centres undefined)
inactive: [1] > 100 µM | [2] > 100 µM | [3] > 100 µM | [4] > 100 µM | [5] > 100 µM | [6] > 100 µM | [7] > 100 µM | [8] > 100 µM | [9] > 100 µM | [10] > 100 µM | [11] > 100 µM | [12] > 100 µM | [13] > 100 µM | [14] > 100 µM | [15] > 100 µM | [16] > 100 µM | [17] > 100 µM

O=c1[nH]nc(Cc2ccc(Cl)cc2)n1CCO
inactive: [1] > 100 µM | [2] > 100 µM | [3] > 100 µM | [18] > 100 µM | [4] > 100 µM | [5] > 100 µM | [6] > 100 µM | [7] > 100 µM | [8] > 100 µM | [9] > 100 µM | [19] > 100 µM | [10] > 100 µM | [11] > 100 µM | [12] > 100 µM | [13] > 100 µM | [15] > 100 µM | [16] > 100 µM | [17] > 100 µM

CNC1c2ccccc2C(=O)c2cc3c(cc21)OCCOCCOCCOCCO3 (centres undefined)
inactive: [1] > 100 µM | [2] > 100 µM | [3] > 100 µM | [4] 54 µM | [5] > 100 µM | [7] > 100 µM | [8] > 100 µM | [9] > 100 µM | [19] > 100 µM | [10] 27.4 µM | [11] > 100 µM | [12] > 100 µM | [13] 34.8 µM | [14] > 100 µM | [16] 45.1 µM

O=C(CCc1nnc2s/c(=C\c3ccc(Cl)cc3Cl)c(=O)n12)Nc1cc(Cl)c(Cl)cc1Cl
inactive: [20] > 10 µM | [1] > 10 µM | [2] > 10 µM | [18] > 10 µM | [4] > 10 µM | [5] 72.4 µM | [6] > 10 µM | [7] > 10 µM | [8] > 10 µM | [9] 55.7 µM | [19] > 10 µM | [10] > 100 µM | [11] > 10 µM | [12] > 10 µM | [13] > 10 µM | [14] > 10 µM | [15] > 10 µM | [16] > 10 µM | [17] > 10 µM

COc1cc(/C=C/C(=O)OC[C@]23O[C@H]2[C@@H](OC2OC(C)C(O)C(O)C2O)C2C=CO[C@@H](OC4OC(CO)C(O)C(O)C4O)C23)ccc1O (some centres undefined)
inactive: [1] > 100 µM | [2] > 100 µM | [3] > 100 µM | [18] > 100 µM | [4] > 100 µM | [5] > 100 µM | [6] > 100 µM | [7] > 100 µM | [9] > 100 µM | [19] > 100 µM | [10] > 100 µM | [11] > 100 µM | [12] > 100 µM | [13] > 100 µM | [14] > 100 µM | [15] > 100 µM | [16] > 100 µM | [17] > 100 µM

CN1C(=O)c2cccc3cc([N+](=O)[O-])cc(c23)C1=O
inactive: [2] > 10 µM | [3] > 10 µM | [4] > 10 µM | [5] > 10 µM | [6] > 10 µM | [7] > 10 µM | [8] > 10 µM | [9] > 10 µM | [19] > 10 µM | [10] > 10 µM | [12] > 10 µM | [13] > 10 µM | [14] > 10 µM | [16] > 10 µM | [17] > 10 µM

CC(=O)OCCn1c(Cc2ccc(C)cc2)nn(C(C)=O)c1=O
inactive: [1] > 100 µM | [2] > 100 µM | [3] > 100 µM | [18] > 100 µM | [4] > 100 µM | [5] > 100 µM | [6] > 100 µM | [7] > 100 µM | [8] > 100 µM | [9] > 100 µM | [19] > 100 µM | [10] > 100 µM | [11] > 100 µM | [12] > 100 µM | [13] > 100 µM | [15] > 100 µM | [16] > 100 µM | [17] > 100 µM

CC(=O)Nc1ccc(C2[C@H]3C(=O)N(c4ccc(Cc5ccc(N6C(=O)[C@@H]7ON(c8ccccc8)C(c8ccc(NC(C)=O)cc8)[C@@H]7C6=O)cc5)cc4)C(=O)[C@H]3ON2c2ccccc2)cc1 (some centres undefined)
inactive: [20] > 100 µM | [1] > 100 µM | [2] 25.2 µM | [18] > 100 µM | [4] > 100 µM | [5] > 100 µM | [6] > 100 µM | [7] > 100 µM | [8] > 100 µM | [9] > 100 µM | [19] > 100 µM | [10] > 100 µM | [11] > 100 µM | [12] > 100 µM | [13] > 100 µM | [14] > 100 µM | [15] > 100 µM | [16] > 100 µM | [17] > 100 µM
